Patent publication US20260274800A1, “Heterocyclic Compound And Use Thereof In Medicine” (Kangbaida (Sichuan) Biotechnology Co., Ltd., priority 2023, published 2026)

Test system: not listed separately
Experiment: Study of pharmacokinetics in mice in vivo
Design: species or system C57BL/6 mice
Settings: male, C57BL/6, mouse, po (intragastric), 50 mg/kg, plasma
Experimental: An appropriate amount of the test substance was weighed, and the test substance was prepared into a 2 mg/mL transparent clear solution using 5% DMSO+5% HS-15 (Solutol HS-15)+90% D5W (5% glucose) for intravenous administration. The test substance was prepared into a 5 mg/mL uniform suspension using 5% DMSO+5% HS-15+90% PBS for intragastric administration.
18 healthy male C57BL/6 mice (GemPharmatech Co., Ltd., SPF grade) were taken. The intravenous administration group and the intragastric administration group respectively had 9 animals. At each time point, blood samples were taken from 3 animals via an orbital microsampling method, with a sampling volume of approximately 0.04 mL per animal per time point.
For intravenous administration of the test substance (10 mg/kg), blood samples were taken before administration and at 5 min, 15 min, 0.5 h, 1 h, 2 h, 4 h, 8 h, and 24 h after administration, and for intragastric administration of the test substance (50 mg/kg), blood samples were taken before administration and at 15 min, 0.5 h, 1 h, 2 h, 4 h, 8 h, and 24 h after administration. After anticoagulation with EDTA-K2, the blood samples were centrifuged at 6000 g at 4° C. for 5 min to separate plasma, and all plasma samples were stored at −70° C. for testing. The drug concentration of the test substance in plasma was determined by LC-MS/MS method (with tolbutamide as an internal standard), and the main pharmacokinetic parameters were calculated by Winnolin 8.3 non-compartment model.

| SMILES | AUC [µg·h/mL] | Cmax [µg/mL] | half-life [h] |
| --- | --- | --- | --- |
| O=C(O)c1cccc(Cn2ncc3cc(Cl)c(Cl)c(Cl)c32)c1F [Compound 28, 2-Fluoro-3-((5,6,7-trichloro-1H-indazol-1-yl)methyl)benzoic acid] | 1580 | 132 | 9.81 |
| Cc1cc(C(F)(F)F)cc2ccn(Cc3cccc(C(=O)O)c3F)c12 [Compound 16, 3-((7-Methyl-5-(trifluoromethyl)-1H-indol-1-yl)methyl)-2-fluorobenzoic acid] | 612 | 93 | 3.39 |
| O=C(O)c1cccc(Cn2ccc3cc(Cl)cc(Cl)c32)c1F [Compound 5, 3-((5,7-Dichloro-1H-indol-1-yl)methyl)-2-fluorobenzoic acid] | 725 | 121 | 3.49 |

Molecular target: T1, MRGPRX4 (Homo sapiens, UniProt Q96LA9)
T1 construct: expressed in transfected cells
Experiment: Detection of MRGPRX4 activity (IP1 HTRF, deoxycholic acid stimulation)
Format: cell-based
Settings: HEK-293 cells stably expressing MRGPRX4; compound 45 min, then deoxycholic acid 45 min; IP1 content by HTRF
Experimental: HEK-293 cells stably expressing MRGPRX4 were cultured in a DMEM medium containing 10% of FBS and 1% of a double antibody under the culture conditions of 37° C. and 5% CO2. Cells in the exponential growth phase were collected and inoculated into a 384-well plate at an inoculation density of 2×10^4 cells/well, with 10 μL per well. 2 μL/well of a gradient-diluted compound was added and co-incubated with the cells for 45 min. After the incubation was complete, 2 μL/well of deoxycholic acid (MCE, Cat: #HY-N0593) was added to continue the incubation for 45 min. After the incubation was complete, IP-one Gq kit (PE, Cat: #62IPAPEB) was used to detect the content of IP1 according to the instructions. HTRF values were substituted into GraphPad 8.0, and IC50 was calculated by fitting.

T1 sequence (Q96LA9 whole entry): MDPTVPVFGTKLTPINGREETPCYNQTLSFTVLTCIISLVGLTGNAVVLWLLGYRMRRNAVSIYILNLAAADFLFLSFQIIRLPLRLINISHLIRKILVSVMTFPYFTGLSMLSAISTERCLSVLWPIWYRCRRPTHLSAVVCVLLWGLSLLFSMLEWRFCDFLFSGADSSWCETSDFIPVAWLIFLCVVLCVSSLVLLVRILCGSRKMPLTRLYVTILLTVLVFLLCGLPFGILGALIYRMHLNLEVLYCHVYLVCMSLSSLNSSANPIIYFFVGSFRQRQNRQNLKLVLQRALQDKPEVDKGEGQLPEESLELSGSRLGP

| SMILES | IC50 [nM] |
| --- | --- |
| O=C(O)c1cccc(Cn2ccc3c(Cl)ccc(Cl)c32)c1F [Compound 80, 3-((4,7-Dichloro-1H-indol-1-yl)methyl)-2-fluorobenzoic acid] | 500 to 1000 |
| O=C(O)c1cccc(Cn2ccc3c(Cl)cc(Cl)cc32)c1F [Compound 79, 3-((4,6-Dichloro-1H-indol-1-yl)methyl)-2-fluorobenzoic acid] | ≤ 200 |
| O=C(O)c1cccc(Cn2ncc3cc(Cl)cc(Br)c32)c1F [Compound 36, 3-((7-Bromo-5-chloro-1H-indazol-1-yl)methyl)-2-fluorobenzoic acid] | ≤ 200 |
| O=C(O)c1cccc(Cn2ncc3c(F)c(Cl)ccc32)c1F [Compound 48, 3-((5-Chloro-4-fluoro-1H-indazol-1-yl)methyl)-2-fluorobenzoic acid] | 200 to 500 |
| O=C(O)c1cccc(Cn2ncc3cc(Cl)c(Cl)c(Cl)c32)c1F [Compound 28, 2-Fluoro-3-((5,6,7-trichloro-1H-indazol-1-yl)methyl)benzoic acid] | ≤ 200 |
| O=C(O)c1cc(Cn2ncc3cc(C(F)(F)F)cc(Br)c32)ccc1F [Compound 41, 5-((7-Bromo-5-(trifluoromethyl)-1H-indazol-1-yl)methyl)-2-fluorobenzoic acid] | 500 to 1000 |
| Cc1ccc2c(ccn2Cc2cccc(C(=O)O)c2F)c1Cl [Compound 62, 3-((4-Chloro-5-methyl-1H-indol-1-yl)methyl)-2-fluorobenzoic acid] | ≤ 200 |
| O=C(O)c1cccc(Cn2ncc3cc(C(F)(F)F)cc(Br)c32)c1F [Compound 22, 3-((7-Bromo-5-(trifluoromethyl)-1H-indazol-1-yl)methyl)-2-fluorobenzoic acid] | 200 to 500 |
| O=C(O)c1cccc(Cn2ncc3cc(Cl)cc(Cl)c32)c1F [Compound 30, 3-((5,7-Dichloro-1H-indazol-1-yl)methyl)-2-fluorobenzoic acid] | ≤ 200 |
| O=C(O)c1cccc(Cn2ccc3cc(C(F)(F)F)cc(Br)c32)c1F [Compound 15, 3-((7-Bromo-5-(trifluoromethyl)-1H-indol-1-yl)methyl)-2-fluorobenzoic acid] | ≤ 200 |
| Cc1cc(C(F)(F)F)cc2ccn(Cc3cccc(C(=O)O)c3F)c12 [Compound 16, 3-((7-Methyl-5-(trifluoromethyl)-1H-indol-1-yl)methyl)-2-fluorobenzoic acid] | ≤ 200 |
| O=C(O)c1cccc(Cn2ncc3cc(OC(F)(F)F)cc(Br)c32)c1F [Compound 27, 3-((7-Bromo-5-(trifluoromethoxy)-1H-indazol-1-yl)methyl)-2-fluorobenzoic acid] | ≤ 200 |
| CC(c1cccc(C(=O)O)c1F)n1ncc2cc(Cl)c(Cl)c(Cl)c21 (stereo not drawn) [Compound 39, 2-Fluoro-3-(1-(5,6,7-trichloro-1H-indazol-1-yl)ethyl)benzoic acid] | ≤ 200 |
| O=C(O)c1cccc(Cn2ccc3c(Cl)c(Cl)ccc32)c1F [Compound 81, 3-((4,5-Dichloro-1H-indol-1-yl)methyl)-2-fluorobenzoic acid] | ≤ 200 |
| O=C(O)c1cccc(Cn2ccc3c(F)c(Cl)ccc32)c1F [Compound 66, 3-((5-Chloro-4-fluoro-1H-indol-1-yl)methyl)-2-fluorobenzoic acid] | ≤ 200 |
| O=C(O)c1cccc(Cn2ccc3cc(Cl)cc(Cl)c32)c1Cl [Compound 82, 2-Chloro-3-((5,7-dichloro-1H-indol-1-yl)methyl)benzoic acid] | 200 to 500 |
| N#Cc1ccc2c(ccn2Cc2cccc(C(=O)O)c2F)c1Cl [Compound 74, 3-((4-Chloro-5-cyano-1H-indol-1-yl)methyl)-2-fluorobenzoic acid] | ≤ 200 |
| O=C(O)c1cccc(Cn2ccc3cc(Cl)c(Cl)cc32)c1F [Compound 6, 3-((5,6-Dichloro-1H-indol-1-yl)methyl)-2-fluorobenzoic acid] | ≤ 200 |
| O=C(O)c1cccc(Cn2ccc3cc(Cl)cc(Cl)c32)c1F [Compound 5, 3-((5,7-Dichloro-1H-indol-1-yl)methyl)-2-fluorobenzoic acid] | ≤ 200 |
| Cc1cc(OC(F)(F)F)cc2ccn(Cc3cccc(C(=O)O)c3F)c12 [Compound 87, 2-Fluoro-3-((7-methyl-5-(trifluoromethoxy)-1H-indol-1-yl)methyl)benzoic acid] | ≤ 200 |
| O=C(O)c1cccc(Cn2ncc3cc(Cl)c(F)c(Cl)c32)c1F [Compound 51, 3-((5,7-Dichloro-6-fluoro-1H-indazol-1-yl)methyl)-2-fluorobenzoic acid] | ≤ 200 |
